Experimental data from patent US12545674B2, “Crystal of trifluoromethyl/chloro disubstituted sulfonamide selective BCL-2 inhibitor” (priority 2020, dated 2026).

Experiments:
[1] = Stability test of crystalline forms (high temperature, high humidity, irradiation; HPLC purity and crystal form); type: physicochemical
Procedure: Test samples were put into an open and proper clean container, and left to stand at 60° C. for 10 days. Samples were collected on day 5 and day 10;
Test samples were put into a closed humid container, and left to stand at 92.5%±5% RH/25° C. for 10 days. Samples were collected on day 5 and day 10;
Test samples were put into a lighting box or other suitable lighting devices (open) with fluorescent lamps at 4500 1×±500 1× for 10 days. Samples were collected on day 5 and day 10.
In the three conditions, the purity of the product and the contents of related substances were detected after the test samples were placed in the experimental conditions. • Instrument: Thermo U3000 high-performance liquid chromatography; • Detector: thermo VWD-3100 UV absorption detector/DAD-3000 diode array detector; • Chromatographic column: XSelect CSH C18 (4.6×150 mm, 3.5 μm); • Injection volume: 10 μL; detection wavelength: 280 nm; flow rate: 1.0 mL/min; column temperature: 30° C.; • Mobile phase: phase A: 0.1% of aqueous formic acid solution, phase B: acetonitrile, gradient elution; • Preparation of sample solution: An appropriate amount of the product was precisely, and dissolved in methanol. The solution was quantitatively diluted to obtain a solution containing about 0.5 mg per 1 mL as a test solution.

[2] = Hygroscopicity test (Chinese Pharmacopoeia General Chapter 9103); type: physicochemical; details: 25° C.±1° C., relative humidity 80%±2%, 24 h
From the text: For the method and conditions of the hygroscopicity test, please refer to the “Guidelines for the Hygroscopicity Test of Drugs” (General Chapter 9103, Chinese Pharmacopoeia, Volume IV, 2015 Edition). Hygroscopicity refers to the capability or degree of a substance for absorbing water in certain temperature and humidity conditions. The test samples were solid drug substances meeting the specifications, and the test results may be used as a reference for selection of suitable drug packaging and storage conditions. • (1) A dried glass weighing bottle with a plug (outer diameter: 50 mm; height: 15 mm) was taken and placed in a suitable thermostatic dryer (with saturated ammonium chloride or ammonium sulfate solution placed in the lower part) at 25° C.±1° C. or an artificial climate box (with a set temperature at 25° C.±1° C. and relative humidity at 80%±2%) on the day before the test, and the weight (m1) was precisely measured. • (2) An appropriate amount of test sample was taken and spread in the above weighing bottle, with the thickness of the test sample being about 1 mm in general, and the weight (m2) was precisely measured. • (3) The weighing bottle was opened and placed in the above conditions at constant temperature and humidity for 24 h together with the cap. • (4) The weighing bottle was capped, and the weight (m3) was precisely measured.

[3] = High humidity 92.5 ± 5% RH/25° C., Day 0
[4] = High humidity 92.5 ± 5% RH/25° C., Day 5
[5] = High humidity 92.5 ± 5% RH/25° C., Day 10
[6] = High temperature 60° C., open container, Day 0
[7] = High temperature 60° C., open container, Day 5
[8] = High temperature 60° C., open container, Day 10
[9] = Irradiation 4500 ± 500 lx, Day 0
[10] = Irradiation 4500 ± 500 lx, Day 5
[11] = Irradiation 4500 ± 500 lx, Day 10

| Compound | Crystalline form [1, 3] | Purity [1, 3] | Crystalline form [1, 4] | Purity [1, 4] | Crystalline form [1, 5] | Purity [1, 5] | Crystalline form ([1]; High temperature 60° C., Day 0) | Crystalline form ([1]; High temperature 60° C., Day 5) | Crystalline form ([1]; High temperature 60° C., Day 10) | Purity [1, 6] | Purity [1, 7] | Purity [1, 8] | Crystalline form [1, 9] | Purity [1, 9] | Crystalline form [1, 10] | Purity [1, 10] | Crystalline form [1, 11] | Purity [1, 11] | Hygroscopic weight gain [2] |
| --- | --- | --- | --- | --- | --- | --- | --- | --- | --- | --- | --- | --- | --- | --- | --- | --- | --- | --- | --- |
| CC1(C)CCC(CN2CCN(c3ccc(C(=O)NS(=O)(=O)c4ccc(NC[C@H]5COCCO5)c([N+](=O)[O-])c4)c(Oc4cnc5[nH]ccc5c4)c3)CC2)=C(c2ccc(C(F)(F)F)cc2Cl)C1 [Amorphous form] | Amorphous | 97.91% | Amorphous | 97.85% | Amorphous | 97.89% | Amorphous | Amorphous | Amorphous | 97.91% | 97.51% | 97.33% | Amorphous | 97.91% | Amorphous | 95.96% | Amorphous | 93.83% |  |
| CC1(C)CCC(CN2CCN(c3ccc(C(=O)NS(=O)(=O)c4ccc(NC[C@H]5COCCO5)c([N+](=O)[O-])c4)c(Oc4cnc5[nH]ccc5c4)c3)CC2)=C(c2ccc(C(F)(F)F)cc2Cl)C1 [Crystalline form A] |  | 97.92% |  | 97.84% |  | 97.91% |  |  |  | 97.92% | 97.41% | 97.17% |  | 97.92% |  | 97.07% |  | 96.62% | 1.38 wt % |
| CC1(C)CCC(CN2CCN(c3ccc(C(=O)NS(=O)(=O)c4ccc(NC[C@H]5COCCO5)c([N+](=O)[O-])c4)c(Oc4cnc5[nH]ccc5c4)c3)CC2)=C(c2ccc(C(F)(F)F)cc2Cl)C1 [Crystalline form C] |  | 98.56% |  | 98.70% |  | 98.64% |  |  |  | 98.56% | 98.25% | 97.31% |  | 98.56% |  | 98.45% |  | 98.15% | 0.11 wt % |
| CC1(C)CCC(CN2CCN(c3ccc(C(=O)NS(=O)(=O)c4ccc(NC[C@H]5COCCO5)c([N+](=O)[O-])c4)c(Oc4cnc5[nH]ccc5c4)c3)CC2)=C(c2ccc(C(F)(F)F)cc2Cl)C1 [Crystalline form B] |  | 98.44% |  | 98.45% |  | 98.36% |  |  |  | 98.44% | 98.34% | 98.22% |  | 98.44% |  | 98.22% |  | 97.68% | 0.30 wt % |

Second part, the compound after the results:

| Crystalline form [1, 3] | Purity [1, 3] | Crystalline form [1, 4] | Purity [1, 4] | Crystalline form [1, 5] | Purity [1, 5] | Crystalline form ([1]; High temperature 60° C., Day 0) | Crystalline form ([1]; High temperature 60° C., Day 5) | Crystalline form ([1]; High temperature 60° C., Day 10) | Purity [1, 6] | Purity [1, 7] | Purity [1, 8] | Crystalline form [1, 9] | Purity [1, 9] | Crystalline form [1, 10] | Purity [1, 10] | Crystalline form [1, 11] | Purity [1, 11] | Hygroscopic weight gain [2] | Compound |
| --- | --- | --- | --- | --- | --- | --- | --- | --- | --- | --- | --- | --- | --- | --- | --- | --- | --- | --- | --- |
|  |  |  |  |  |  |  |  |  |  |  |  |  |  |  |  |  |  | 0.75 wt % | CC1(C)CCC(CN2CCN(c3ccc(C(=O)NS(=O)(=O)c4ccc(NC[C@H]5COCCO5)c([N+](=O)[O-])c4)c(Oc4cnc5[nH]ccc5c4)c3)CC2)=C(c2ccc(C(F)(F)F)cc2Cl)C1 [Crystalline form D] |
|  |  |  |  |  |  |  |  |  |  |  |  |  |  |  |  |  |  | 0.76 wt % | CC1(C)CCC(CN2CCN(c3ccc(C(=O)NS(=O)(=O)c4ccc(NC[C@H]5COCCO5)c([N+](=O)[O-])c4)c(Oc4cnc5[nH]ccc5c4)c3)CC2)=C(c2ccc(C(F)(F)F)cc2Cl)C1 [Crystalline form F] |
|  |  |  |  |  |  |  |  |  |  |  |  |  |  |  |  |  |  | 0.25 wt % | CC1(C)CCC(CN2CCN(c3ccc(C(=O)NS(=O)(=O)c4ccc(NC[C@H]5COCCO5)c([N+](=O)[O-])c4)c(Oc4cnc5[nH]ccc5c4)c3)CC2)=C(c2ccc(C(F)(F)F)cc2Cl)C1 [Crystalline form H] |
|  | 98.02% |  |  |  | 97.89% |  |  |  | 98.02% |  | 97.88% |  | 98.02% |  |  |  | 97.71% | 0.11 wt % | CC1(C)CCC(CN2CCN(c3ccc(C(=O)NS(=O)(=O)c4ccc(NC[C@H]5COCCO5)c([N+](=O)[O-])c4)c(Oc4cnc5[nH]ccc5c4)c3)CC2)=C(c2ccc(C(F)(F)F)cc2Cl)C1 [Crystalline form E] |
